We go through five compounds from the supplement of paper PMC11061612.

What all share (experiment): Bliss excess, mean over the matrix (fraction); higher = more synergy
The subject of one experiment is AM-38 (Glioblastoma). Summed up:
(§1)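 Cell lines grown in DMEM/F12 or RPMI with 10% FBS were plated in 1536-well plates and held 24 hours at 37°C, 5% CO2 before 72 hours of exposure to two-drug dose matrices, with DMSO typically at 0.2%. CellTiter-Glo 2.0 luminescence gave viability, which was converted to inhibition. Vehicle wells were set to 0 and blank wells to 1. Combination Emax is the second-highest inhibition in the matrix, and Bliss excess is the observed combination effect minus the expected EA + EB − EA·EB, where EA and EB are the single-agent effects.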

For experiment [1], the system named is BxPC-3 (Pancreatic Carcinoma). Summed up: as §1
The test system of another experiment is GAK (Melanoma). In outline:
as §1

The next experiment has as its system IST-MEL1 (Melanoma). Summed up:
as §1

The test system of experiment [2] is KP-4 (Pancreatic Carcinoma). In outline:
as §1

Experiment [3] has as its system MONO-MAC-6 (Acute Myeloid Leukemia). Summed up:
as §1

Experiment [4] concerns MS-1 (Small Cell Lung Carcinoma). In outline:
as §1

Experiment [5] concerns NAMALWA (Burkitt's Lymphoma). Summed up:
as §1

The next experiment concerns NB1 (Neuroblastoma). In outline:
as §1

In experiment [6] the test system is NCI-H1341 (Small Cell Lung Carcinoma). In outline: as §1
In experiment [7] the test system is NCI-H1876 (Small Cell Lung Carcinoma). Summed up:
as §1

A further experiment relates to NCI-H2373 (Mesothelioma). In outline: as §1
The subject of experiment [8] is NCI-H3118 (Head and Neck Carcinoma). In outline:
as §1

Experiment [9] concerns NCI-H596 (Other Solid Carcinomas). In outline: as §1
The subject of experiment [10] is OAW-28 (Ovarian Carcinoma). Summed up: as §1
For experiment [11], the system named is OVCAR-3 (Ovarian Carcinoma). Summed up:
as §1

Experiment [12] deals with PL4 (Pancreatic Carcinoma). In outline: as §1
In experiment [13] the test system is Raji (Burkitt's Lymphoma). In outline: as §1
The test system of experiment [14] is SUP-M2 (T-Cell Non-Hodgkin's Lymphoma). In outline:
as §1

The subject of experiment [15] is T84 (Colorectal Carcinoma). Summed up: as §1

Take `CC1(C)CCC(CN2CCN(c3ccc(C(=O)NS(=O)(=O)c4ccc(NCC5CCOCC5)c([N+](=O)[O-])c4)c(Oc4cnc5[nH]ccc5c4)c3)CC2)=C(c2ccc(Cl)cc2)C1` [Venetoclax] + COc1cc(Nc2ncc3c(n2)-c2ccc(Cl)cc2C(c2c(F)cccc2OC)=NC3)ccc1C(=O)O [Alisertib] (first compound max 1 µM, 7x7, partner max 10 µM): the Bliss excess in the experiment on AM-38 (Glioblastoma) is 0.0101; in experiment [1] it was -0.0291; in the experiment with GAK (Melanoma), -0.0359; in the experiment on IST-MEL1 (Melanoma) it was -0.0547; in [2], -0.0542; in [3], 0.164. Besides, the Bliss excess in experiment [4] is 0.0861; in experiment [5], -0.0072; with NB1 (Neuroblastoma), 0.117; in [6], 0.125; in experiment [7] it was 0.0228; in the experiment with NCI-H2373 (Mesothelioma), -0.0293. In addition, the Bliss excess is -0.0188 in experiment [8]; -0.0501 in [9]; 0.0736 in [10]; -0.0234 in experiment [11]; -0.0531 in experiment [12]; -0.006 in experiment [13]. Also, the Bliss excess in experiment [14] was -0.0043; in [15], 0.0136.

For `CC1(C)CCC(CN2CCN(c3ccc(C(=O)NS(=O)(=O)c4ccc(NCC5CCOCC5)c([N+](=O)[O-])c4)c(Oc4cnc5[nH]ccc5c4)c3)CC2)=C(c2ccc(Cl)cc2)C1` [Venetoclax] + C[C@@H]1COCCN1C2=NC(=NC(=C2)C3(CC3)[S@](=N)(=O)C)C4=C5C=CNC5=NC=C4 [AZD6738] (first compound max 1 µM, 7x7, partner max 10 µM), the Bliss excess in the experiment with AM-38 (Glioblastoma) is 0.0223; in [1], 0.0101; in the experiment with GAK (Melanoma), -0.0586; in the experiment on IST-MEL1 (Melanoma), -0.019; in experiment [2], -0.0282; in experiment [3], -0.0322. In addition, the Bliss excess in [4] is 0.0066; in experiment [5], -0.0029; in the experiment with NB1 (Neuroblastoma), -0.0444; in experiment [6] it was 0.0142; in experiment [7], -0.0358; in the experiment with NCI-H2373 (Mesothelioma), -0.0052. Further, the Bliss excess in experiment [8] is -0.0643; in [9], -0.0571; in experiment [10] it was -0.0216; in experiment [11] it was -0.0108; in [12], -0.0918; in [13], 0.0091. The Bliss excess in experiment [14] is 0.0239; in experiment [15], -0.0134.

As to `CC1(C)CCC(CN2CCN(c3ccc(C(=O)NS(=O)(=O)c4ccc(NCC5CCOCC5)c([N+](=O)[O-])c4)c(Oc4cnc5[nH]ccc5c4)c3)CC2)=C(c2ccc(Cl)cc2)C1` [Venetoclax] + C[C@@H](Nc1cc(F)cc(F)c1)c1cc(C(=O)N(C)C)cc2c(=O)cc(N3CCOCC3)oc12 [AZD8186] (first compound max 1 µM, 7x7, partner max 3 µM), the Bliss excess with AM-38 (Glioblastoma) was -0.0259; in experiment [1], -0.0115; in the experiment with GAK (Melanoma), -0.0325; with IST-MEL1 (Melanoma) it was 0.0253; in experiment [2], -0.0205; in experiment [3], 0.0531. Moreover, the Bliss excess in experiment [4] is 0.0357; in experiment [5], 0.0287; in the experiment with NB1 (Neuroblastoma) it was -0.047; in [6] it was 0.0918; in [7], -0.0181; with NCI-H2373 (Mesothelioma), -0.0473. In addition, the Bliss excess was -0.0439 in [8]; -0.0378 in experiment [9]; 0.0551 in experiment [10]; -0.0062 in [11]; -0.049 in experiment [12]; 0.0114 in experiment [13]. Further, the Bliss excess in experiment [14] was 0.0106; in experiment [15], -0.0284.

Take `CC1(C)CCC(CN2CCN(c3ccc(C(=O)NS(=O)(=O)c4ccc(NCC5CCOCC5)c([N+](=O)[O-])c4)c(Oc4cnc5[nH]ccc5c4)c3)CC2)=C(c2ccc(Cl)cc2)C1` [Venetoclax] + Cc1cc2ncnn2cc1Nc1ncc2c(n1)n(C1CCOCC1)c(=O)n2C [AZD7648] (first compound max 1 µM, 7x7, partner max 10 µM): the Bliss excess was -0.0098 in the experiment on AM-38 (Glioblastoma); -0.0374 in [1]; -0.0209 in the experiment on GAK (Melanoma); -0.0486 with IST-MEL1 (Melanoma); -0.061 in experiment [2]; -0.025 in experiment [3]. The Bliss excess in experiment [4] was 0.0008; in experiment [5], -0.0246; in the experiment on NB1 (Neuroblastoma), -0.0358; in experiment [6] it was 0.0752; in experiment [7], 0.0111; with NCI-H2373 (Mesothelioma), -0.056. Moreover, the Bliss excess is -0.0369 in experiment [8]; -0.0119 in [9]; 0.0005 in experiment [10]; -0.0259 in experiment [11]; -0.0297 in [12]; 0.0289 in [13]. For the same compound, the Bliss excess in experiment [14] was 0.0218; in [15], -0.0267.

Regarding `CC1(C)CCC(CN2CCN(c3ccc(C(=O)NS(=O)(=O)c4ccc(NCC5CCOCC5)c([N+](=O)[O-])c4)c(Oc4cnc5[nH]ccc5c4)c3)CC2)=C(c2ccc(Cl)cc2)C1` [Venetoclax] + Cn1cnc2c(F)c(Nc3ccc(Br)cc3Cl)c(C(=O)NOCCO)cc21 [Selumetinib] (first compound max 1 µM, 7x7, partner max 3 µM), the Bliss excess with AM-38 (Glioblastoma) is -0.108; in experiment [1], 0.0009; with GAK (Melanoma), 0.0238; in the experiment on IST-MEL1 (Melanoma), -0.0654; in [2], -0.0521; in experiment [3] it was -0.0192. Further, the Bliss excess in experiment [4] was -0.0273; in [5], 0.0019; in the experiment on NB1 (Neuroblastoma), -0.0466; in experiment [6], 0.0847; in [7], -0.0335; in the experiment with NCI-H2373 (Mesothelioma), -0.0468. In addition, the Bliss excess in [8] is -0.0276; in experiment [9], -0.0764; in experiment [10], 0.0047; in experiment [11], -0.017; in experiment [12], -0.0236; in experiment [13] it was -0.003. The Bliss excess was 0.0165 in [14] and -0.061 in [15].
